Source: patent US10617662B2, “Autophagy activation-induced compound for improving skin inflammation for aging” (INCOSPHARM CORPORATION, priority 2017, dated 2020)

Test system: IL-1β (interleukin-1beta)
Experiment: ELISA for IL-1β in LPS-treated HEKa cells
Assay type: cell-based, human
Conditions: LPS-induced inflammatory condition, 10·M, FIG. 10
Description: ELISA (enzyme-linked immunosorbent assay) for IL-1β (interleukin-1beta) which is very closely related to atopic inflammation and psoriasis was performed.
As a specific experimental method, HEKa cells (Human Epidermal keratinocytes, adult), human-derived epidermal keratinocytes were seeded on a 24 well plate at a density of 1×10^5 cells, and cultured in an EpiLife medium (1× Human keratinocyte Growth supplement, 1× antibiotics) in an incubator under 37° C. and 5% CO2 for 24 hours.
After culturing, while an inflammatory condition was induced by treatment with LPS (lipopolysaccharides) in each well, further treatment was performed with Compound 8 of the present invention and the compound of the following Comparative Example at a concentration of 10·M, and then the cells were incubated for a certain period. After completing culturing, media were collected, and then ELISA for IL-1β was carried out, and the results are shown in FIG. 10.

## O=C(O)CN(CCCCNC(CCCCN(CC(=O)O)CC(=O)O)C(=O)O)CC(=O)O (stereo not shown) [compound of the Comparative Example, reference compound]
  cytokine IL-1β secretion level: negligible
